Assay results from the NIST ThermoML archive (doi:10.1016/j.jct.2018.11.004).

Assay: molar heat capacity at saturation pressure
Details: Small (less than 1 g) adiabatic calorimetry

CC(C)[C@@H]1CC[C@@H](C)C[C@H]1O [L-menthol]
Details | molar heat capacity [J/K/mol]
5.02 K, Crystal 1 | 0.8545
5.31 K, Crystal 1 | 1.027
5.63 K, Crystal 1 | 1.231
5.95 K, Crystal 1 | 1.445
6.26 K, Crystal 1 | 1.675
6.62 K, Crystal 1 | 1.937
7 K, Crystal 1 | 2.276
7.37 K, Crystal 1 | 2.577
7.74 K, Crystal 1 | 2.937
8.14 K, Crystal 1 | 3.382
8.58 K, Crystal 1 | 3.847
9.03 K, Crystal 1 | 4.373
9.49 K, Crystal 1 | 4.87
9.99 K, Crystal 1 | 5.512
10.51 K, Crystal 1 | 6.205
11.04 K, Crystal 1 | 6.889
11.61 K, Crystal 1 | 7.681
12.2 K, Crystal 1 | 8.523
12.83 K, Crystal 1 | 9.473
13.48 K, Crystal 1 | 10.42
14.15 K, Crystal 1 | 11.42
14.89 K, Crystal 1 | 12.53
15.66 K, Crystal 1 | 13.66
16.43 K, Crystal 1 | 14.93
17.26 K, Crystal 1 | 16.13
18.12 K, Crystal 1 | 17.43
19.04 K, Crystal 1 | 18.89
20 K, Crystal 1 | 20.23
21.02 K, Crystal 1 | 21.71
22.08 K, Crystal 1 | 23.27
23.2 K, Crystal 1 | 24.92
24.41 K, Crystal 1 | 26.58
25.66 K, Crystal 1 | 28.24
26.93 K, Crystal 1 | 29.92
28.27 K, Crystal 1 | 31.55
29.67 K, Crystal 1 | 33.28
31.12 K, Crystal 1 | 34.98
32.66 K, Crystal 1 | 36.66
34.28 K, Crystal 1 | 38.41
36 K, Crystal 1 | 40.06
37.89 K, Crystal 1 | 42.03
39.9 K, Crystal 1 | 43.93
42.02 K, Crystal 1 | 45.96
44.24 K, Crystal 1 | 48.03
46.54 K, Crystal 1 | 50.11
48.92 K, Crystal 1 | 52.21
51.35 K, Crystal 1 | 54.32
53.83 K, Crystal 1 | 56.47
56.32 K, Crystal 1 | 58.63
58.78 K, Crystal 1 | 60.81
61.29 K, Crystal 1 | 62.85
64.03 K, Crystal 1 | 65.18
66.85 K, Crystal 1 | 67.74
69.53 K, Crystal 1 | 70.14
72.08 K, Crystal 1 | 72.41
74.6 K, Crystal 1 | 74.48
77.11 K, Crystal 1 | 76.77
79.66 K, Crystal 1 | 78.77
79.78 K, Crystal 1 | 79.07
81.5 K, Crystal 1 | 80.47
82.26 K, Crystal 1 | 80.88
83.22 K, Crystal 1 | 81.89
84.79 K, Crystal 1 | 83.06
84.94 K, Crystal 1 | 83.28
86.67 K, Crystal 1 | 84.77
87.34 K, Crystal 1 | 85.27
88.39 K, Crystal 1 | 86.22
89.9 K, Crystal 1 | 87.37
90.12 K, Crystal 1 | 87.73
91.85 K, Crystal 1 | 89.21
92.42 K, Crystal 1 | 89.76
93.59 K, Crystal 1 | 90.65
94.94 K, Crystal 1 | 91.69
95.32 K, Crystal 1 | 92.09
97.06 K, Crystal 1 | 93.51
97.47 K, Crystal 1 | 93.81
98.8 K, Crystal 1 | 95.01
100.02 K, Crystal 1 | 95.95
100.55 K, Crystal 1 | 96.44
102.3 K, Crystal 1 | 97.81
102.58 K, Crystal 1 | 98.22
104.04 K, Crystal 1 | 99.24
105.18 K, Crystal 1 | 100.4
105.8 K, Crystal 1 | 100.7
107.55 K, Crystal 1 | 102
107.78 K, Crystal 1 | 102.4
109.31 K, Crystal 1 | 103.5
111.06 K, Crystal 1 | 104.9
112.82 K, Crystal 1 | 106.2
114.58 K, Crystal 1 | 107.7
116.34 K, Crystal 1 | 109
118.11 K, Crystal 1 | 110.4
119.87 K, Crystal 1 | 111.7
121.64 K, Crystal 1 | 113.1
123.41 K, Crystal 1 | 114.4
125.18 K, Crystal 1 | 115.8
126.95 K, Crystal 1 | 117.2
128.73 K, Crystal 1 | 118.4
130.5 K, Crystal 1 | 119.8
132.28 K, Crystal 1 | 121.1
134.07 K, Crystal 1 | 122.4
135.85 K, Crystal 1 | 123.7
137.63 K, Crystal 1 | 125.1
139.41 K, Crystal 1 | 126.4
141.2 K, Crystal 1 | 127.7
142.99 K, Crystal 1 | 128.9
144.77 K, Crystal 1 | 130.2
146.56 K, Crystal 1 | 131.5
148.36 K, Crystal 1 | 132.8
150.15 K, Crystal 1 | 134.1
151.94 K, Crystal 1 | 135.3
153.73 K, Crystal 1 | 136.6
155.53 K, Crystal 1 | 137.9
157.32 K, Crystal 1 | 139.1
159.12 K, Crystal 1 | 140.4
160.91 K, Crystal 1 | 141.7
162.72 K, Crystal 1 | 143
164.52 K, Crystal 1 | 144.3
166.32 K, Crystal 1 | 145.5
168.12 K, Crystal 1 | 146.8
169.92 K, Crystal 1 | 148
171.73 K, Crystal 1 | 149.2
173.53 K, Crystal 1 | 150.5
175.33 K, Crystal 1 | 151.8
177.14 K, Crystal 1 | 153.1
178.95 K, Crystal 1 | 154.4
180.76 K, Crystal 1 | 155.6
182.56 K, Crystal 1 | 156.9
184.37 K, Crystal 1 | 158.2
186.18 K, Crystal 1 | 159.4
188 K, Crystal 1 | 160.7
189.81 K, Crystal 1 | 162.1
191.62 K, Crystal 1 | 163.3
193.43 K, Crystal 1 | 164.6
195.25 K, Crystal 1 | 165.9
197.06 K, Crystal 1 | 167.2
198.87 K, Crystal 1 | 168.5
200.69 K, Crystal 1 | 169.8
202.5 K, Crystal 1 | 171.1
204.32 K, Crystal 1 | 172.4
206.14 K, Crystal 1 | 173.7
207.95 K, Crystal 1 | 175
209.77 K, Crystal 1 | 176.4
211.6 K, Crystal 1 | 177.6
213.42 K, Crystal 1 | 178.9
215.24 K, Crystal 1 | 180.2
216.36 K, Crystal 1 | 180.9
217.07 K, Crystal 1 | 181.5
218.32 K, Crystal 1 | 182.5
218.89 K, Crystal 1 | 182.9
220.14 K, Crystal 1 | 183.7
220.72 K, Crystal 1 | 184.2
221.96 K, Crystal 1 | 185.1
222.55 K, Crystal 1 | 185.4
223.78 K, Crystal 1 | 186.5
225.6 K, Crystal 1 | 187.8
227.43 K, Crystal 1 | 189.1
229.25 K, Crystal 1 | 190.5
231.07 K, Crystal 1 | 191.9
232.89 K, Crystal 1 | 193.3
234.71 K, Crystal 1 | 194.7
236.53 K, Crystal 1 | 196.1
238.35 K, Crystal 1 | 197.4
240.18 K, Crystal 1 | 198.8
242 K, Crystal 1 | 200.2
243.83 K, Crystal 1 | 201.7
245.65 K, Crystal 1 | 203.1
247.48 K, Crystal 1 | 204.5
249.3 K, Crystal 1 | 206
251.12 K, Crystal 1 | 207.5
252.95 K, Crystal 1 | 208.9
254.77 K, Crystal 1 | 210.4
256.59 K, Crystal 1 | 212
258.41 K, Crystal 1 | 213.7
260.23 K, Crystal 1 | 215.2
262.05 K, Crystal 1 | 216.8
263.88 K, Crystal 1 | 218.5
265.7 K, Crystal 1 | 220.1
267.52 K, Crystal 1 | 221.7
269.34 K, Crystal 1 | 223.4
271.17 K, Crystal 1 | 225.1
272.99 K, Crystal 1 | 226.5
274.82 K, Crystal 1 | 227.9
276.64 K, Crystal 1 | 229.6
278.46 K, Crystal 1 | 231.1
278.81 K, Crystal 1 | 231.4
280.29 K, Crystal 1 | 232.6
280.63 K, Crystal 1 | 233
282.11 K, Crystal 1 | 234.2
282.45 K, Crystal 1 | 234.5
283.93 K, Crystal 1 | 235.8
284.26 K, Crystal 1 | 236.1
285.75 K, Crystal 1 | 237.3
286.08 K, Crystal 1 | 237.7
287.57 K, Crystal 1 | 239
287.88 K, Crystal 1 | 239.5
289.39 K, Crystal 1 | 240.8
289.68 K, Crystal 1 | 241.3
290.89 K, Crystal 1 | 242.4
291.08 K, Crystal 1 | 242.5
291.22 K, Crystal 1 | 242.6
291.47 K, Crystal 1 | 242.9
291.8 K, Crystal 1 | 243.3
292.76 K, Crystal 1 | 244.5
293.04 K, Crystal 1 | 244.4
293.06 K, Crystal 1 | 244.7
293.25 K, Crystal 1 | 244.8
293.66 K, Crystal 1 | 245.4
294.53 K, Crystal 1 | 246.2
294.86 K, Crystal 1 | 246.6
294.94 K, Crystal 1 | 246.6
295.02 K, Crystal 1 | 246.7
295.44 K, Crystal 1 | 247.2
296.68 K, Crystal 1 | 248.4
296.79 K, Crystal 1 | 248.6
296.82 K, Crystal 1 | 248.6
298.5 K, Crystal 1 | 250.6
298.55 K, Crystal 1 | 250.5
298.69 K, Crystal 1 | 250.9
312.2 K, Liquid | 370.6
314.15 K, Liquid | 373.6
316.02 K, Liquid | 376.5
317.57 K, Liquid | 379.5
317.87 K, Liquid | 379.7
318.1 K, Liquid | 380.3
318.47 K, Liquid | 380.7
318.82 K, Liquid | 381.4
319.28 K, Liquid | 381.8
319.72 K, Liquid | 382.6
320.06 K, Liquid | 383.3
320.34 K, Liquid | 383.5
320.78 K, Liquid | 384.6
321.01 K, Liquid | 384.9
321.31 K, Liquid | 385.3
321.56 K, Liquid | 385.4
322.18 K, Liquid | 386.6
322.55 K, Liquid | 386.9
323.31 K, Liquid | 388.4
323.4 K, Liquid | 388.2
323.45 K, Liquid | 388.5
323.79 K, Liquid | 388.8
324.01 K, Liquid | 389.3
325.28 K, Liquid | 391.1
325.83 K, Liquid | 392
325.85 K, Liquid | 392.2
327.12 K, Liquid | 393.8
327.67 K, Liquid | 394.8
328.34 K, Liquid | 395.8
328.95 K, Liquid | 396.4
329.49 K, Liquid | 397.5
330.79 K, Liquid | 399.1
330.84 K, Liquid | 399.3
331.3 K, Liquid | 400.1
332.62 K, Liquid | 401.7
333.11 K, Liquid | 402.5
333.33 K, Liquid | 402.6
334.46 K, Liquid | 404.2
335.81 K, Liquid | 406
336.3 K, Liquid | 406.5
338.14 K, Liquid | 408.8
338.29 K, Liquid | 409
339.98 K, Liquid | 411.3
340.77 K, Liquid | 412.1
341.82 K, Liquid | 413.4
343.25 K, Liquid | 415.1
343.66 K, Liquid | 415.8
345.5 K, Liquid | 417.9
345.72 K, Liquid | 418.1
347.35 K, Liquid | 419.8
348.2 K, Liquid | 420.7
349.19 K, Liquid | 421.7
350.66 K, Liquid | 423
351.04 K, Liquid | 423.4
352.88 K, Liquid | 425.1
353.12 K, Liquid | 425.1
354.73 K, Liquid | 426.7
355.58 K, Liquid | 427.2
356.58 K, Liquid | 428.4
358.04 K, Liquid | 429.4
358.43 K, Liquid | 429.7
360.27 K, Liquid | 431.1
360.49 K, Liquid | 431
362.12 K, Liquid | 432.6
362.94 K, Liquid | 432.8
363.97 K, Liquid | 433.8
365.39 K, Liquid | 434.2
365.82 K, Liquid | 435.5
367.67 K, Liquid | 436.2
367.84 K, Liquid | 435.7
